The test system of assay [1] is male Wistar/AF EOPS rats. The assay can be described thus: Behavioral despair test (forced swimming). The format is in vivo, rat. How it is done:
Forty male Wistar/AF EOPS rats (Iffa-Credo Breeding Centre, 69-St-Germain sur l'Arbresle, France), weighing 300 to 320 g, were used. On arrival, the rats were labelled and distributed randomly in pairs into type F polycarbonate cages (48×27×20 cm, U.A.R., 91-Epinay-Sur-Orge, France). The animals were stabled in an air-conditioned animal house, at a temperature of 22-24° C. The rats were given food (M25 croquettes, Ets Pietrement, 77-Provins, France) and drink ad libitum and were subjected to a 12-hour light-darkness cycle.
After one week of familiarization with the laboratory conditions, the rats were weighed and distributed randomly into 3 treatment groups (n=12). The rats of the different groups will all be handled in the same way and under the same conditions.
The behavioral despair test takes place over two sessions: • a 15-minute test session; • a 5-minute retest session, performed 24 hours later.
During the test session, the rat was subjected to forced swimming in a Plexiglas cylinder (20 cm in diameter and 50 cm in height, containing 25 cm of water at 25° C.) and its behavior was recorded over 15 minutes. At the end of the test, the rat was removed from the water, dried gently, treated and then returned to its dwelling cage.
During the retest, 24 hours later, the rat was again placed in the water and its behavior was recorded over 5 minutes.
The recorded variables are the period of immobility during the first 5 minutes of both the test and the retest.
The peptide FG-005 (SMR1-QHNPR) (SEQ ID NO: 1) was suspended at a rate of 500 μg per 5 ml of 0.01N acetic acid, and then diluted with PBS to be administered at doses of 50 and 100 μg/kg via the i.v. route into the dorsal caudal vein of the rat, immediately after the test and 300 and 5 minutes before the retest the following day.
A bilateral probability paired t test was used to compare the two periods of immobility of the test with those of the retest in each of the groups. The results are expressed as an average ±standard error of mean (SEM)(FIG. 4). The statistical and graphical processing was performed using Statview5 and DeltaGraph® Pro 3.5 software.

For assay [2], the system named is adult male rats. Conditions: PCT patent application WO 01/00 221; cited from earlier work.
Assay [3] has as its target T1, NEP (Rattus norvegicus, UniProt P07861).
T1 construct: incubations of membrane and fresh tissue slice preparations from nervous tissues; from tissue; host or cells: rat spinal cord (dorsal zone), fresh slices or 100 000 x g membrane fraction
T1 sequence (P07861 1-750): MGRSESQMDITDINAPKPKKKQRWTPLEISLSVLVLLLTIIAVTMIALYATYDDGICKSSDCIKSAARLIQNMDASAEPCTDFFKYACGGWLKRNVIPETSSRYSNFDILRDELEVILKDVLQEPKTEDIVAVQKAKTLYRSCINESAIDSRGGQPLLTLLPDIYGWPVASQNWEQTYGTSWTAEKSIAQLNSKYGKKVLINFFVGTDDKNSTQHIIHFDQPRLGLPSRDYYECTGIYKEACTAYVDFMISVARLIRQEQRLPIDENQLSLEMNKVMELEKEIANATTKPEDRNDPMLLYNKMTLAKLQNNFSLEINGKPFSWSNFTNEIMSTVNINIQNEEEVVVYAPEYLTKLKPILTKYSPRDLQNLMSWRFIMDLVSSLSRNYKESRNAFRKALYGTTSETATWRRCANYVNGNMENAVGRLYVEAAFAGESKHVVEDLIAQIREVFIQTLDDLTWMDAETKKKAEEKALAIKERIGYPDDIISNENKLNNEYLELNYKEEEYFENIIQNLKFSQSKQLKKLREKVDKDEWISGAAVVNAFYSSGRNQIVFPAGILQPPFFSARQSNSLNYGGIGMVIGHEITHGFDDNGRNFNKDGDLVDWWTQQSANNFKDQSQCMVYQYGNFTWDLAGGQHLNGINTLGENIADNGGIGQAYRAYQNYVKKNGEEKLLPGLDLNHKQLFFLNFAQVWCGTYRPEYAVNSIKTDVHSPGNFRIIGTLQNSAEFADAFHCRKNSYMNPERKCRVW
The assay can be described thus: 3H-Substance P hydrolysis by rat spinal cord slices. Conditions: 25° C., over 30 min incubation, read-out: inhibition of Substance P degradation. The format is biochemical. On the procedure: For the experiments of analysis of the NEP peptidase activity, an ex vivo model using incubations of membrane and fresh tissue slice preparations from nervous tissues that are known to be appropriate for exploring NEP peptidase activity: i.e. the dorsal zone of rat spinal cord, was first developed. […] (NEN, 12.5-25 nM) were used.
The objective was to measure the NEP-specific endoproteolysis of these substrates.
The C-18 Sep-Pak cartridges (Waters) were used to analyze the hydrolysis of the radiolabeled peptides: they separate compounds according to their differences in polarity. This solid-phase extraction procedure allows isolating the substrate from its metabolites, since the hydrophobic character of the peptide metabolites is reduced or even lost compared to the intact peptide substrate.
The radioactivity of eluted and isolated compounds is determined by liquid scintillation spectrometry.

The source of these data is patent US7423020B2, “Treatment of mood disorders by administration of SMR1” (Institut Pasteur, priority 2001, dated 2008).

The structures appear in SMILES notation. Where a SMILES comes first, the peptide text is derived from it.

As to `N=C(N)NCCC[C@H](NC(=O)[C@@H]1CCCN1C(=O)[C@H](CC(N)=O)NC(=O)[C@H](Cc1c[nH]cn1)NC(=O)[C@@H](N)CCC(N)=O)C(=O)O` [SMR1-QHNPR, QHNPR] (H-QHNPR-OH; N-terminus and C-terminus assumed), the “overall effect in the behavioral despair test” value in assay [1] (FG-005 50 and 100 μg/kg i.v., 8-OH-DPAT as reference substance) is reported as “antidepressant effect”. In addition, the “change of period of immobility, retest compared with test” value in assay [1] (dose of 50 μg/kg) is “increase their period of immobility during the retest”; in assay [1] (doses of 50 and 100 μg/kg, i.v., immediately after the test and 300 and 5 minutes before the retest) it was “do not increase their periods of immobility during the retest”. Moreover, the “effect on sexual behavior and aggressive impulse behavior” value in assay [2] is on record as “dose-dependent improvement on the sexual behavior of adult male rats with a loss of the aggressive impulse behavior”. Besides, the inhibition at 10 µM in assay [3] was 75%.

Broadly, the inhibition is the relative decrease from the control value, in per cent.
